Results from patent publication US11058690B2, “Use of cytochrome bc1 complex inhibitor in preparing pharmaceutical composition” (BEIJING WEILANZHIYUAN MEDICAL TECHNOLOGY CO., LTD., priority 2017, dated 2021).

How the values were obtained:
[1] = tested on: rat uterine smooth muscle; experiment: contraction of rat uterine smooth muscle induced by oxytocin; format: cell-based; details: oxytocin (1 mU/ml)
Method: (§1) Female healthy Wistar rats weighing 230-270 g were used in the experiment. At 2 days before the experiment, Diethylstilbestrol suspension was injected intraperitoneally once at 0.1 mg/kg, resulting in artificial estrus. The rats were sacrificed by cervical dislocation, and the uterus was removed by laparotomy and immediately placed in a glass plate containing Tyrode's solution. […] The materials stood for 20-30 minutes, liquid was changed 2-3 times, then the uterus was given a load of 1 g and kept for 30-60 minutes until the uterus had regular contraction waves, 40 mM KCL solution was provided for 10 minutes, and the function of the uterine muscle strips was evaluated. Then the muscle strips were relaxed and washed 2-3 times with Tyrode's solution, then let stand for 30 minutes; after standing, the uterine muscle strips were given a load of 1 g and kept for 30-60 minutes, and the administration and the observation were carried out after the uterine muscle strips contracted stably (i.e. regular contraction waveforms appear in a microcomputer display screen), the changes of relevant data such as contraction tension, amplitude and area under the contraction curve of the uterine smooth muscle strips were recorded, and the drug given was evaluated. […]

[2] = tested on: Mouse mononuclear macrophage RAW 264.7; experiment: nitric oxide production by LPS-stimulated macrophages (Griess assay); format: cell-based; details: LPS 1 μg/mL, 24 h
Kunming male mice = experiment: acetic acid writhing test on mice; format: in vivo, mouse; details: for Writhe starting time / Number of writhing times: Table 3; for Number of writhing times: within 30 min
[3] = tested on: rat uterine smooth muscle; experiment: contraction of isolated rat uterine smooth muscle strips induced by PGF2α; format: cell-based; details: PGF2α (450 nM); for IC50: area under the contraction curve 10 minutes after drug, read-out: IC50, inhibition of uterine smooth muscle contraction
Method: Female healthy Wistar rats weighing 230-270 g were used in the experiment. At 2 days before the experiment, Diethylstilbestrol suspension was injected intraperitoneally once at 0.1 mg/kg, resulting in artificial estrus. The rats were sacrificed by cervical dislocation, and the uterus was removed by laparotomy and immediately placed in a glass plate containing Tyrode's solution. Connective and adipose tissues attached to the uterine wall were carefully peeled off, the uterus was cut open along the mesangial line and laid flat on the bottom of the glass plate, then one side of the uterus was divided into left and right uterine muscle strips by using a surgical blade along the uterine contraction band running along smooth muscle, the two ends of the uterine muscle strip on one side were ligated with wires respectively, and then transferred into a nutrient tube which was aerated with oxygen and filled with 5 ml of Tyrode's solution and preheated to 37.2±0.5° C., with a lower end fixed and an upper end connected with a tension sensor. The materials stood for 20-30 minutes, liquid was changed 2-3 times, then the uterus was given a load of 1 g and kept for 30-60 minutes until the uterus had regular contraction waves, 40 mM KCL solution was provided for 10 minutes, and the function of the uterine muscle strips was evaluated. Then the muscle strips were relaxed and washed 2-3 times with Tyrode's solution, then let stand for 30 minutes; after standing, the uterine muscle strips were given a load of 1 g and kept for 30-60 minutes, and the administration and the observation were carried out after the uterine muscle strips contracted stably (i.e. regular contraction waveforms appear in a microcomputer display screen), the changes of relevant data such as contraction tension, amplitude and area under the contraction curve of the uterine smooth muscle strips were recorded, and the drug given was evaluated. During the experiment, the working temperature of the Tyrode's solution was kept at 37.2±0.5° C., and oxygen was continuously aerated into the nutrient tube with 1-2 bubbles per second. A cumulative dosing method was adopted, and 5 μl was administered each time, from low concentration to high concentration. A final drug concentration refers to the concentration of the drug dissolved in 5 ml Tyrode's solution in a […] tube.
Fluacrypyrim (FAPM), the first strobilurin acaricide developed by BASF SE and Nippon Soda Co., Ltd., is a Qo site inhibitor of the mitochondrial cytochrome bc1 complex. […] The area under the smooth muscle contraction curve was calculated before drug intervention and 10 minutes after different doses of drug intervention respectively. A drug dose-effect curve was plotted by taking the area under the smooth muscle contraction curve caused by PGF2α as 100%, to calculate the median effective dose (IC50 value) of the drug for inhibiting uterine smooth muscle contraction.

[4] = tested on: rat uterine smooth muscle; experiment: contraction of rat uterine smooth muscle induced by acetylcholine; format: cell-based; details: acetylcholine (0.25 μM)
Method: as §1

mice = experiment: xylene-induced mouse ear swelling test; format: in vivo
Method: Fifty healthy adult male mice were randomly divided into 5 groups. […] […] One hour after administration, 20 μL of xylene was evenly applied to both sides of the right ear of mouse, and xylene was not applied to the left ear as self control. One hour later, the two ears were cut off, and two ear pieces were removed from the same parts of the two ears with a 6 mm hole punch. The two ear pieces were weighed on a precision balance, and the swelling degree (right ear piece weight-left ear piece weight) and swelling inhibition rate (right ear piece weight-left ear piece weight)/left ear piece weight×100%) were calculated.

SMILES: CO/C=C(/C(=O)OC)c1ccccc1COc1cc(C(F)(F)F)nc(OC(C)C)n1 [FAPM, fluacrypyrim]
- IC50 [1]: 1.6 ± 0.08 µM
- Maximum inhibition rate ([2]; in %): 80%
- IC50 ([2]; Mus musculus, RAW264.7, read-out: IC50, NO production): 3.8 µM
- curative effect compared with indomethacin (Kunming male mice; 100 mg/Kg versus indomethacin 50 mg/Kg): equivalent to indomethacin at 50 mg/Kg
- writhe starting time (reaction latency) compared with control group (Kunming male mice; FAPM and trifloxystrobin intraperitoneal, azoxystrobin intragastric): significantly prolonged
- Writhe starting time (Kunming male mice; 50 mg/Kg intraperitoneal): 3.4 ± 1.1 min
- Number of writhing times (Kunming male mice; 50 mg/Kg intraperitoneal, 1 hour before acetic acid): 25.3 ± 4.7
- Writhe starting time (Kunming male mice; 100 mg/Kg intraperitoneal): 4.6 ± 1.5 min
- Number of writhing times (Kunming male mice; 100 mg/Kg intraperitoneal): 17.6 ± 3.5
- Writhe starting time (Kunming male mice; 200 mg/Kg intraperitoneal): 11.9 ± 2.6 min
- Number of writhing times (Kunming male mice; 200 mg/Kg intraperitoneal): 2.4 ± 2.2
- inhibitory effect on PGF2α-induced contraction ([3]; amplitude and frequency): in a dose-dependent manner
- IC50 [3]: 1.69 ± 0.16 µM
- IC50 ([3]; Rattus norvegicus, 10 min): 1.84 ± 0.08 µM
- IC50 [4]: 1.36 ± 0.04 µM
- Ear swelling (mice; 100 mg/Kg intraperitoneal, 1 hour after xylene): 7.83 ± 3.85 mg
- xylene-induced mouse ear swelling (mice; 100 mg/kg intraperitoneal): significantly inhibited
